Legend:
suckling rats [1] = experiment: Set I: plasma concentration of marker molecules BSA and BIgG (macromolecule absorption), Example 3; format: in vivo, Rattus norvegicus; details: 3 hours after marker feeding, day 17, in words (FIG. 6)
Source text: The plasma level of marker molecules was quantified by using immunoassay rocket electrophoresis and SRI (single radial immunodiffusion) for plasma BSA and BIgG respectively.

suckling piglets = experiment: Suckling pig model II: marker molecules absorption in vivo after microbial protease, Experiment 10; details: protease treated piglets vs control
Description: All piglets were kept with sow until the weaning day. Piglets from 5-6 litters divided into 2 groups and treated with microbial protease (Sigma) (enz group) or water (cont) (n=28 per group), total 56. The dose of enzymes was 60 mg/ml with activity 1000 USP per 1 mg, the administration volume was 4 ml/kg b. wt, the frequency of administration was every second day (ones a day). Treatment via gavage feeding was started at 8 d of age and was done 3 times, (i.e. 8, 10, 12 d of life).
Separate piglets (6 enzyme treated and 6 control pigs) were fed with marker molecule solution (Bovine serum albumin (BSA) in concentration 125 mg/ml and sodium fluorescein (NaF) in concentration 2.5 mg/ml; the administration volume was 4 ml/kg b.wt) at age 14 d of life and 27 d of life (the weaning day). Blood was collected at 0, […], 1, 2, 4, 8, and 24 hours after marker-cocktail feeding.

suckling rats [2] = experiment: Set I: brush-border disaccharidase activity in proximal SI, Example 3; format: in vivo, Rattus norvegicus; details: proximal part of SI, in words (FIG. 5)
Description: The proximal samples of the SI were de-frozen and weighted and then homogenized with 9 parts of 0.9% NaCl (9 w/v). The homogenates (50 μl diluted samples) were incubated with the appropriate disaccharide (50 μl of 0.056M sucrose, maltose and lactose) for 1 hour at 37° C. After this, the liberated glucose was determined by adding glucose oxidase reagent (Sigma Chemicals), and incubated for 30 minutes. Then samples were transferred into the 96-well plate in triplication and the absorbance was measured at 450 nm. To measure the protein contents of the homogenates, Lowry method, was used, where BSA (Bovine Serum Albumin) was used as a standard. The results are presented as specific activity units per mg of protein (u/mg).

suckling rats [3] = experiment: Papain vs microbial protease: body and organ weight, Example 8; format: in vivo, Rattus norvegicus
Source text: (§1) The litter size for each dam was limited to 12 or 13 pups, to reduce variability.
(§2) Suckling pups were divided into 3 groups depending on the treatments; microbial protease as a positive control, water as negative control and enzyme from papaya fruit (papain) (in total; protease=7, papain=8, control=7). The enzymes are available in the market in form of powders and were resolved in distilled water prior to stomach feeding during 14-16 d of age. The administered dose for each enzyme was 10000 USP/animal. The volume of administered enzymes and water (for control groups) was 0.01 ml/g b.wt. Prior to the feeding procedure, the pups were weighed. […] Three hours later, the pups were anaesthetized and organs were dissected out for analyses.

suckling rats [4] = experiment: Papain vs microbial protease: macromolecule absorption (BSA, BIgG in plasma), Example 8; format: in vivo, Rattus norvegicus; details: day 17, 3 hours after feeding, in words (FIG. 14)
Source text: as §1, §2

suckling rats [5] = experiment: Set II: intestinal morphology of distal SI at different doses of protease, Example 4; format: in vivo, Rattus norvegicus; details: in words (FIG. 8)
Description: The second study was about comparing the effect of different doses of protease (15000 USP, 7500 USP, 3750 USP and […]) on the development of the GI tract with control. In this experiment 2 litters of pups were used (n=13 and n=12). Pups were divided into five groups to fed with different doses of protease; 15000 USP (n=3), P7500 USP (n=6), P 3750 USP (n=6), P 1875 USP (n=5) and water as a control (n=5). The feeding was during 3 continuous days, once a day. 24 hours after the last feeding, on day 17, similar dissection steps and analytical procedures as mentioned for the previous experiment were followed.
(§3) All samples collected for histology were fixed with Bouin's solution for 24 hours and then stored in 70% ethanol, dehydrated, embedded into the paraffin and then cut into sections with 5 μm thickness. The tissue sections were transferred onto the slides, rehydrated and stained with H&E according to the standard technique. After mounting under cover slips samples were examined using light microscopy to estimate ratio between total length of the villus and length of the adult type enterocytes using ImageJ program.

rat pups = experiment: Set III: health and growth monitored for 3 weeks after protease, early and normal weaning, Example 5; format: in vivo; details: protease 15 000 USP
Source text: In the last study, the health and the growth of the pups were monitored for 3 weeks. Pups where treated at age 14 day of life with the protease 15 000 USP/rat/day for 3 days once a day (on days 14, 15, and 16). This study performed using 3 litters (n=9, n=11 and n=10) where pups were divided into 2 groups; enzyme treated and control. After last feeding rat were further divided into subgroups: early weaning started on day 17 (n=8) and normal weaning started on day 21 (n=6). All animals were monitored via weighing for one week on a daily basis and then once a week for the next 2 weeks.

suckling rats [6] = experiment: Set I: intestinal morphology of distal SI, Example 3; format: in vivo, Rattus norvegicus; details: distal part of SI, in words
Description: as §3

[7] = 10000 USP/animal, days 14-16, day 17

Substance: Proteinase from Aspergillus melleus [Protease]
- uptake of marker molecule BIgG to plasma (suckling rats [1]): significantly lower
- uptake of marker molecule BSA to plasma (suckling rats [1]): significantly lower
- intestinal permeability for BSA (suckling piglets; in words (FIG. 20A)): decreased intestinal permeability
- intestinal permeability for NaF (suckling piglets; in words (FIG. 20B)): decreased intestinal permeability
- lactase activity (suckling rats [2]): decreased
- maltase activity (suckling rats [2]): significantly increased
- sucrase activity (suckling rats [2]): significantly increased
- Body weight (suckling rats [3]; [7]): 34.8 ± 3.31 gr
- Cecum (suckling rats [3]; [7]): 2.89 ± 0.47 mg/g BW
- Distal SI (suckling rats [3]; [7]): 15.2 ± 2.3 mg/g BW
- Liver (suckling rats [3]; [7]): 32.22 ± 1.37 mg/g BW
- Pncrease (suckling rats [3]; [7]): 3.87 ± 0.34 mg/g BW
- Proxima SI (suckling rats [3]; [7]): 20.24 ± 2.37 mg/g BW
- SI length (suckling rats [3]; [7]): 1.59 ± 0.18 cm/g BW
- Spleen (suckling rats [3]; [7]): 3.18 ± 0.23 mg/g BW
- Stomach (suckling rats [3]; [7]): 6.71 ± 0.41 mg/g BW
- Thymus (suckling rats [3]; [7]): 4.95 ± 0.93 mg/g BW
- effect on body growth (suckling rats [3]; dose 10 000 USP, days 14 to 17, in words (FIG. 12)): No effect
- uptake of macromolecules, BIgG absorption (suckling rats [4]): significantly lower
- vacuolated (fetal-type) enterocytes in distal SI (suckling rats [5]; protease 1875 USP): limited to the middle and the tip of the villi
- vacuolated (fetal-type) enterocytes in distal SI (suckling rats [5]; protease 3750 USP): limited to the middle and the tip of the villi
- vacuolated (fetal-type) enterocytes in distal SI (suckling rats [5]; protease 7500 USP): limited to the middle and the tip of the villi
- vacuolated (fetal-type) enterocytes in distal SI (suckling rats [5]; protease 15000 USP): all of the vacuolated enterocytes disappeared
- diarrhea (rat pups; after first treatment): signs of diarrhea
- growth in comparison to control group (rat pups; in words (FIG. 9)): decrease in growth after first treatment
- effect of early weaning on treated group (rat pups; weaning day 17, in words): no disadvantage
- replacement of vacuolated enterocytes by adult type enterocytes (suckling rats [6]): all of the vacuolated enterocytes were replaced with adult type enterocytes

Reference: US9205137B2, “Maturation of gastrointestinal tract” (ANARA AB, priority 2010, dated 2015)
